Experimental data published in publication PMC11721939, “Novel tetrahydronaphthalen-1-yl-phenethyl ureas: synthesis and dual antibacterial-anticancer activities” (Journal of Enzyme Inhibition and Medicinal Chemistry, 2023).
Converted amounts (≈) assume the structure as drawn. Where two headings read alike, the source gives them in different places.

Legend:
[1] = tested on: Enterococcus faecalis ATCC 49452; experiment: Micro-well dilution assay (MIC); assay type: cell-based; conditions: for MIC: ATCC49452
Experimental: (§1) The bacteria employed for evaluation included Acinetobacter baumannii ATCC 1605, Enterococcus faecalis ATCC 49452, Pseudomonas aeruginosa ATCC 9027, and Staphylococcus aureus MRSA ATCC 43300. These strains were sourced from the Molecular Biology and Genetics Laboratory at Erzurum Technical University. They were immersed in Mueller-Hinton Broth (MHB) and then incubated at a temperature of 37 °C for a duration of 16–24 h.
(§2) The synthesised ureas’ minimum inhibitory concentrations (MICs) against the bacterial samples were ascertained using the microdilution broth technique. Utilising a method of twofold serial dilutions, the ureas were diluted to concentrations spanning from […]. The bacterial turbidity was set to match the 0.5 McFarland standard. In the 96-well plates, each well received 100 μl of MHB and 5 μl of the bacteria being tested. For the negative control, 195 μl of MHB and 5 μl of the bacterial sample were added. The plate was then covered with a sterile seal and allowed to incubate for 24 h at a temperature of 37 °C. Post incubation, the growth of the bacteria was assessed at 600 nm using the Fluoroskan Ascent® FL. The MIC represented the smallest amount of the chemical that effectively halted bacterial growth. This procedure was conducted three times.

[2] = tested on: Pseudomonas aeruginosa ATCC 9027; experiment: Micro-well dilution assay (MIC); assay type: cell-based; conditions: for MIC: ATCC9027
Experimental: as §1, §2

[3] = tested on: Staphylococcus aureus MRSA ATCC 43300; experiment: Micro-well dilution assay (MIC); assay type: cell-based
Experimental: as §1, §2

[4] = tested on: Acinetobacter baumannii ATCC 1605; experiment: Micro-well dilution assay (MIC); assay type: cell-based; conditions: for MIC: ATCC1605
Experimental: as §1, §2

[5] = tested on: Enterococcus faecalis ATCC 49452; experiment: Disc diffusion method; assay type: cell-based; conditions: for zone of inhibition at 500 µM: ATCC49452, 500 µM; for zone of inhibition at 1000 µM: ATCC49452, 1000 µM
Experimental: as §1
(§3) Bacteria were adjusted to a McFarland standardisation of 0.5, equivalent to a cell density of 1.5 × 10^8/ml, and were then introduced into MHB. Subsequently, a 100 μl volume of this bacterial mixture was spread onto Mueller-Hinton agar plates. Sterile empty discs were then treated with the formulated ureas at concentrations of 1000, 500, and 250 µM. Oflaxin ([…]) and netilmicin ([…]) were used as positive controls, while DMSO served as the negative control. The plates were then placed in an incubator at 37 °C for a period ranging from 24 to 72 h, depending on the optimal conditions. Post incubation, the diameter of the inhibition zones was gauged to determine the antibacterial efficacy. This entire process was replicated three times.

[6] = tested on: Pseudomonas aeruginosa ATCC 9027; experiment: Disc diffusion method; assay type: cell-based; conditions: for zone of inhibition at 250 µM: ATCC9027, 250 µM; for zone of inhibition at 250 µM / zone of inhibition at 500 µM / zone of inhibition at 1000 µM: read-out: Disc diffusion test, inhibitory zone diameter; for zone of inhibition at 500 µM: ATCC9027, 500 µM; for zone of inhibition at 1000 µM: ATCC9027, 1000 µM
Experimental: as §1, §3

[7] = tested on: Staphylococcus aureus MRSA ATCC 43300; experiment: Disc diffusion method; assay type: cell-based; conditions: for zone of inhibition at 250 µM / zone of inhibition at 500 µM / zone of inhibition at 1000 µM: Staphylococcus aureus, read-out: Disc diffusion test, inhibitory zone diameter; for Standard antibiotic disc, inhibitory zone diameter: Staphylococcus aureus MRSA
Experimental: as §1, §3

[8] = tested on: Acinetobacter baumannii ATCC 1605; experiment: Disc diffusion method; assay type: cell-based; conditions: for zone of inhibition at 250 µM: ATCC1605, 250 µM; for zone of inhibition at 250 µM / zone of inhibition at 500 µM / zone of inhibition at 1000 µM: read-out: Disc diffusion test, inhibitory zone diameter; for zone of inhibition at 500 µM: ATCC1605, 500 µM; for zone of inhibition at 1000 µM: ATCC1605, 1000 µM
Experimental: as §1, §3

HeLa cells [9] = experiment: WST-8 cytotoxicity assay; assay type: cell-based, human; conditions: for IC50: Homo sapiens, HeLa cells, 48 h, WST-8, n = 4, read-out: Cytotoxic activity IC50; for SI value (HeLa cells): IC50 PCS-201-012 fibroblasts / IC50 HeLa, n = 4
Experimental: (§4) The cells in culture were frequently sub-cultured, about 2–3 times weekly, until they reached a confluence of 80–90%. The experiments were organised into seven cell groups as follows: group I served as the control, while groups II through VII were pre-treated with varying dosages of the synthesised ureas (ranging from 12.5 µM to 500 µM). The cytotoxic potential of these ureas was assessed in vitro using the Cell Viability Detection Kit-8 (CVDK-8, Ecotech Biotechnology, Erzurum, Turkey), a method based on WST-8 quantification for human primary dermal fibroblasts and cervical cancer cells. Healthy fibroblast, HeLa, and SH-SY5Y cells were allocated in 96-well plates, with each well containing 5 × 10^3 cells in 100 µL of DMEM:F12 (supplemented with 1% penicillin/streptomycin and 10% FBS). After an overnight growth, these cells were exposed to specified concentrations of the synthesised ureas for a duration of 48 h at 37 °C in a 5% CO2 atmosphere. Cisplatin acted as the positive control with concentration gradients of 0–250 µM for HeLa cells and 0–20 µM for the SH-SY5Y cells. Post incubation, in sterile, dimly lit conditions, 10% WST-8 solution was added to every well and further incubated at 37 °C within 5% CO2 for another 3–4 h. The optical density of the 96-well plate was gauged at a 450 nm wavelength using a spectrophotometer (BioTek, EPOCH, Santa Clara, CA). The control group’s main purpose was to measure the absorbance of just the cells and the growth medium.

SH-SY5Y cells [10] = experiment: WST-8 cytotoxicity assay; assay type: cell-based, human; conditions: for IC50: Homo sapiens, SH-SY5Y, 48 h, WST-8, n = 4, read-out: Cytotoxic activity IC50; for SI value (SH-SY5Y cells): IC50 PCS-201-012 fibroblasts / IC50 SH-SY5Y, n = 4
Experimental: as §4

WST-8 cytotoxicity assay = assay type: cell-based; conditions: human, PCS-201-012 healthy primary dermal fibroblast cells, PCS-201-012 healthy fibroblast cells, WST-8, n = 4, read-out: Cytotoxic activity IC50
Experimental: as §4

HeLa cells [11] = conditions: read-out: Cytotoxic activity IC50, melphalan control; cited from earlier work
SH-SY5Y cells [12] = conditions: read-out: Cytotoxic activity IC50, melphalan control; cited from earlier work
[13] = read-out: Disc diffusion test, inhibitory zone diameter

Row | SMILES | MIC [1] [µM] | MIC [2] [µM] | MIC [3] [µM] | MIC [4] [µM] | zone of inhibition at 500 µM [5, 13] [mm] | zone of inhibition at 1000 µM [5, 13] [mm] | zone of inhibition at 250 µM [6] [mm] | zone of inhibition at 500 µM [6] [mm] | zone of inhibition at 1000 µM [6] [mm] | zone of inhibition at 250 µM [7] [mm] | zone of inhibition at 500 µM [7] [mm] | zone of inhibition at 1000 µM [7] [mm] | zone of inhibition at 250 µM [8] [mm] | zone of inhibition at 500 µM [8] [mm] | zone of inhibition at 1000 µM [8] [mm] | melting point [°C] | IC50 (HeLa cells [9]) [µM] | SI value (HeLa cells) (HeLa cells [9]) | IC50 (SH-SY5Y cells [10]) [µM] | SI value (SH-SY5Y cells) (SH-SY5Y cells [10]) | further results
1 | COc1ccc(CCNC(=O)NC2CCCc3c(OC)cccc32)cc1OC (stereo not shown) [Compound 17, 1-(3,4-Dimethoxyphenethyl)-3-(5-methoxy-1,2,3,4-tetrahydronaphthalen-1-yl)urea] | 0.97 (≈ 0.373 µg/mL) | 7.81 (≈ 3 µg/mL) | 7.81 (≈ 3 µg/mL) | 7.81 (≈ 3 µg/mL) | 7 | 10 | 7 | 10 | 10 | 8 | 13 | 14 | 6 | 8 | 15 | 168 to 170 | 251 | 1.51 | 9.7 | 39.08 | IC50 at 48 h (WST-8 cytotoxicity assay): 380 µM
2 | COc1ccc(CCNC(=O)NC2CCCc3c(OC)cccc32)cc1 (stereo not shown) [Compound 18, 1-(5-Methoxy-1,2,3,4-tetrahydronaphthalen-1-yl)-3-(4-methoxyphenethyl)urea] | 0.97 (≈ 0.344 µg/mL) | 3.9 (≈ 1.38 µg/mL) | 3.9 (≈ 1.38 µg/mL) | 7.81 (≈ 2.77 µg/mL) | 7 | 13 | 9 | 10 | 15 | 5 | 12 | 15 | 6 | 10 | 16 | 150 to 152 | 364 | 1.02 | 10.2 | 36.72 | zone of inhibition at 250 µM ([5]; ATCC49452, 250 µM, read-out: Disc diffusion test, inhibitory zone diameter): 5 mm; IC50 at 48 h (WST-8 cytotoxicity assay): 374 µM
3 | N[C@@H](Cc1ccc(N(CCCl)CCCl)cc1)C(=O)O [Melphalan, melphalan] |  |  |  |  |  |  |  |  |  |  |  |  |  |  |  |  |  |  |  |  | IC50 (HeLa cells [11]): 61 µM; IC50 (SH-SY5Y cells [12]): 2.2 µM
4 | CCN[C@@H]1C[C@H](N)[C@@H](O[C@H]2OC(CN)=CC[C@H]2N)[C@H](O)[C@H]1O[C@H]1OC[C@](C)(O)[C@H](NC)[C@H]1O [NET30, netilmycin, reference compound] |  |  |  |  |  |  |  |  |  |  |  |  |  |  |  |  |  |  |  |  | MIC of standard antibiotics [1]: 32 µg/mL; MIC of standard antibiotics [2]: 4 µg/mL; MIC of standard antibiotics [3]: 0.8 µg/mL; MIC of standard antibiotics [4]: 4 µg/mL; Standard antibiotic disc, inhibitory zone diameter ([5]; 30 μg/disc): 9 mm; Standard antibiotic disc, inhibitory zone diameter ([6]; 30 μg/disc): 16 mm; Standard antibiotic disc, inhibitory zone diameter ([7]; 30 μg/disc): 21 mm; Standard antibiotic disc, inhibitory zone diameter ([8]; 30 μg/disc): 13 mm
5 | CC1COc2c(N3CCN(C)CC3)c(F)cc3c(=O)c(C(=O)O)cn1c23 (stereo not shown) [OFX, ofloxacin, reference compound] |  |  |  |  |  |  |  |  |  |  |  |  |  |  |  |  |  |  |  |  | MIC of standard antibiotics [1]: 2.5 µg/mL; MIC of standard antibiotics [2]: 11.4 µg/mL; MIC of standard antibiotics [3]: 1.2 µg/mL; MIC of standard antibiotics [4]: 0.5 µg/mL; Standard antibiotic disc, inhibitory zone diameter ([5]; 10 μg/disc): 11 mm; Standard antibiotic disc, inhibitory zone diameter ([6]; 10 μg/disc): 23 mm; Standard antibiotic disc, inhibitory zone diameter ([7]; 10 μg/disc): 24 mm; Standard antibiotic disc, inhibitory zone diameter ([8]; 10 μg/disc): 16 mm
